Laboratory results from ChEMBL document CHEMBL3585318, “Effect of water solvation on the lipophilicity of isomeric pyrimidine-carboxamides” (Bioorg Med Chem, 2015).

Key:
Format in all cases: physicochemical
[1] = Partition coefficient of buffer-octanol system, logP of the compound by shake-flask method
[2] = Lipophilicity, log D of the compound at pH 7.4 by UV/Vis spectroscopy based shake-flask method; settings: buffer
[3] = Dissociation constant, pKa of the compound

Row | logP [1] | logD [2] | pKa [3] | Structure (SMILES)
1 | 1.5 | 1 |  | O=C1CCCc2cnccc21
2 | 1.2 | 0.9 |  | O=C1CCCc2ncccc21
3 | 1.1 | 1 | 2.9 | CCNC(=O)c1nc(OC)cc(N(C)C)n1
4 | 1.7 | 1.6 | 3.8 | CCNC(=O)c1cc(N(C)C)nc(OC)n1
5 | 0.9 | 0.8 |  | O=C1CCCc2ccncc21
6 | 2.5 | 2.6 | 2.4 | CCNC(=O)c1cc(OC)nc(N(C)C)n1

Row | Structure (SMILES) | logP [1] | logD [2] | pKa [3]
7 | O=C1CCCc2cccnc21 | 0.4 | 0.2 | 
